# Measured values from publication PMC10744608, “Simplified Synthesis of Renieramycin T Derivatives to Target Cancer Stem Cells via β-Catenin Proteasomal Degradation in Human Lung Cancer” (Marine Drugs, 2023).
# What was measured:
# Test in all cases: Immunoprecipitation of β-catenin–ubiquitin complex
# Format in all cases: cell-based, human
# H292 cells = conditions: H292, 50 nM, compared to cells treated with RT
# Description: (§1) The DH_32-treated A549, H23, and H292 cells were collected using cold PBS and incubated on ice in a lysis buffer. This buffer consisted of 50 mM 4-(2-hydroxyethyl)-1-piperazineethanesulfonic acid at pH 7.5, 150 mM NaCl, 5 mM EDTA, 1% Triton X-100, 1 mM phenylmethylsulfonyl fluoride, and 2 μg/mL pepstatin A (catalog no: 9803, Cell Signaling), along with complete protease inhibitor cocktail tablets from the EASYpack (Roche, catalog no: 04693116001). The incubation took place for 40 min on ice, followed by centrifugation at 12,000× g at 4 °C for 15 min.
# (§2) Subsequently, immunoprecipitation was carried out using the Dynabeads™ Protein G Immunoprecipitation Kit from Thermo Fisher Scientific Inc. (Waltham, MA, USA). The magnetic beads were prepared and added to 100 μL of Ab binding and washing buffer that contained β-catenin (2 μL) for 15 min on rotation at room temperature. The complex of magnetic beads and antibodies was re-suspended in a protein lysis buffer and left to incubate at 4 °C overnight, facilitating the binding of the β-catenin antigen with the magnetic bead–antibody complex. The magnetic bead–Ab–Ag complex was washed three times using 200 μL of washing buffer. The magnetic bead–antibody–antigen complex was resuspended in the lysis buffer (30 μL), and the 6x sample buffer (5 μL) was denatured by heating at 95 °C for 5 min. The antigen–antibody complex was loaded onto a 12% sodium dodecyl sulfate polyacrylamide gel electrophoresis (SDS-PAGE). Following gel separation, the proteins were transferred onto a nitrocellulose membrane with a pore size of 0.45 μm. After transfer, the membrane was placed in a mixture containing 5% nonfat dry milk in TBST (composed of 25 mm Tris-HCl, pH 7.4, 125 mm NaCl, and 0.05% Tween 20) for a duration of 1 h 30 min. Following this, the proteins were exposed to primary antibodies (Cell Signaling), specifically ubiquitin mouse mAb (cat no: 14049), and left to incubate overnight at 4 °C. […] Protein intensity was analyzed by using ImageJ software (Image J 1.52a, Rasband, W., National Institutes of Health, USA). […]
# H23 cells = conditions: H23, 50 nM, compared to cells treated with RT
# Description: as §1, §2
# A549 cells = conditions: A549, 50 nM, compared to cells treated with RT
# Description: as §1, §2
smiles,measurement,setting,value
"COC1=C(C)C(=O)C2=C(C1=O)[C@@H]1CN(Cc3ccc4ccccc4c3)[C@@H](C#N)[C@H](C2)N1C [DH_32, (1R,4R,5S)-9-methoxy-8,11-dimethyl-3-(naphthalen-2-ylmethyl)-7,10-dioxo-1,2,3,4,5,6,7,10-octahydro-1,5-epiminobenzo[d]azocine-4-carbonitrile]",increase in level of β-catenin–ubiquitin complex,H292 cells,3.5 fold
same,increase in level of β-catenin–ubiquitin complex,H23 cells,two-fold increase
same,increase in level of β-catenin–ubiquitin complex,A549 cells,2.5 fold
